Patent US10781184B2, “Substituted benzazinones as antibacterial compounds” (GlaxoSmithKline Intellectual Property Development Limited, priority 2015, dated 2020)
In brackets after ≈: the same amount, converted by molar mass. Structures can show the parent of a compound that is named as a salt. Where two headings read alike, the source gives them in different places.

Columns and labels:
Test in all cases: Minimum Inhibitory Concentration Assay (broth microdilution, CLSI)
Assay type in all cases: cell-based
E. coli 7623 = tested on: E. coli 7623
Method: (§1) Methods for dilution Antimicrobial Susceptibility TestS for Bacteria that Grow Aerobically; Approved Standard-Ninth Edition; M7-A9, Vol. 32 No. 2, Clinical and Laboratory Standards Institute, Wayne, Pa.; January 2012.
(§2) Performance Standards for Antimicrobial Susceptibility Testing; Twenty-Second Informational Supplement; M100-S22 Vol. 32 No. 3; Clinical and Laboratory Standards Institute, Wayne, Pa., January 2012.
(§3) Broth microdilution was performed in accordance with the CLSI recommended procedures for aerobic bacteria [CLSI, 2012].
(§4) Comparator compound stock solutions were prepared as recommended by CLSI [CLSI, 2012]. The stock solutions of novel GSK compounds were prepared at 512 mcg/mL by dissolving the compounds in dimethyl sulfoxide (DMSO) and diluting 1:10 with sterile water. The 512 mcg/mL stock was further serially diluted in the recommended broth media for the organisms being tested. Final DMSO concentration in test wells was less than 1%.
(§5) Microtitre plates were prepared using the Microlab STAR™ (Hamilton Co., Reno, Nev.) to add media (50 μL) and the Microlab AT Plus system (Hamilton Co., Reno, Nev.) to serially dilute the compounds (final concentration range 0.125 to 128 mcg/mL) and to add inoculum. A positive growth control well containing medium and the test isolate was included on each microtitre plate. Ten microliters of the test medium from the positive growth control well was plated to determine the purity of each test isolate. A microtitre mirror reader (Cooke Instruments, Ltd., England) was used to assist in determining the microdilution MIC endpoints. The MIC was determined as the lowest concentration of compound that inhibited visible growth of the organism.

P. aeruginosa PA01 = details: Pseudomonas aeruginosa
Method: as §1, §2, §3, §4, §5

K. pneumoniae 1161486 = tested on: K. pneumoniae 1161486
Method: as §1, §2, §3, §4, §5

[1] = Escherichia coli, strain 7623, broth microdilution, read-out: E. coli 7623 MIC
[2] = strain PA01, broth microdilution, read-out: P. aeruginosa PA01 MIC
[3] = Klebsiella pneumoniae, strain 1161486, broth microdilution, read-out: K. pneumoniae 1161486 MIC

Row | SMILES | MIC (E. coli 7623; [1]) [µg/mL] | MIC (P. aeruginosa PA01; [2]) [µg/mL] | MIC (K. pneumoniae 1161486; [3]) [µg/mL] | MIC (E. coli 7623; Escherichia coli, 7623, read-out: E. coli 7623 MIC (ug/mL)) [µg/mL] | MIC (P. aeruginosa PA01; PA01, read-out: P. aeruginosa PA01 MIC (ug/mL)) [µg/mL] | MIC (K. pneumoniae 1161486; Klebsiella pneumoniae, 1161486, read-out: K. pneumoniae 1161486 MIC (ug/mL)) [µg/mL]
1 | COCCCN(C)Cc1ccc(-c2ccc3c(=O)n(CC[C@](C)(C(=O)NO)S(C)(=O)=O)ccc3c2)c(F)c1.Cl [Example 70, (2R)-4-[6-(2-fluoro-4-{[(3-methoxypropyl)(methyl)amino]methyl}phenyl)-1-oxo-1,2-dihydroisoquinolin-2-yl]-N-hydroxy-2-methanesulfonyl-2-methylbutanamide] | 0.125 | 2 | 0.25 | – | – | –
2 | COCCN(C)Cc1ccc(-c2cc3ncn(CC[C@](C)(C(=O)NO)S(C)(=O)=O)c(=O)c3cc2F)c(F)c1 [Example 23, (2R)-4-[6-fluoro-7-(2-fluoro-4-{[(2-methoxyethyl)(methyl)amino]methyl}phenyl)-4-oxo-3,4-dihydroquinazolin-3-yl]-N-hydroxy-2-methanesulfonyl-2-methylbutanamide] | 0.25 (≈ 0.452 µM) | 4 (≈ 7.24 µM) | 0.5 (≈ 0.905 µM) | – | – | –
3 | CN(CCO)Cc1ccc(-c2ccc3c(=O)n(CC[C@](C)(C(=O)NO)S(C)(=O)=O)ccc3c2)c(F)c1.O=C(O)C(F)(F)F [Example 74, (2R)-4-[6-(2-fluoro-4-{[(2-hydroxyethyl)(methyl)amino]methyl}phenyl)-1-oxo-1,2-dihydroisoquinolin-2-yl]-N-hydroxy-2-methanesulfonyl-2-methylbutanamide] | 0.25 | 1 | 0.5 | – | – | –
4 | C[C@@](CCn1cnc2cc(-c3ccccc3)ccc2c1=O)(C(=O)NO)S(C)(=O)=O [Example 1, (R)—N-hydroxy-2-methyl-2-(methylsulfonyl)-4-(4-oxo-7-phenylquinazolin-3(4H)-yl)butanamide] | 0.5 (≈ 1.2 µM) | 1 (≈ 2.41 µM) | 0.25 (≈ 0.602 µM) | – | – | –
5 | C[C@@](CCn1ccc2cc(-c3ccc(CCN4CCOCC4)cc3)ccc2c1=O)(C(=O)NO)S(C)(=O)=O [Example 80, (2R)—N-hydroxy-2-methanesulfonyl-2-methyl-4-(6-{4-[2-(morpholin-4-yl)ethyl]phenyl}-1-oxo-1,2-dihdroisoquinolin-2-yl)butanamide] | 0.063 (≈ 0.119 µM) | 1 (≈ 1.9 µM) | 0.25 (≈ 0.474 µM) | – | – | –
6 | C[C@@](CCn1ccc2cc(-c3ccc(CCO)cc3)ccc2c1=O)(C(=O)NO)S(C)(=O)=O [Example 93, (2R)—N-hydroxy-4-{6-[4-(2-hydroxyethyl)phenyl]-1-oxo-1,2-dihydroisoquinolin-2-yl}-2-methanesulfonyl-2-methylbutanamide] | 0.063 (≈ 0.137 µM) | 0.5 (≈ 1.09 µM) | 0.125 (≈ 0.273 µM) | – | – | –
7 | C[C@@](CCn1cnc2cc(-c3ccc4c(c3)COC4)c(F)cc2c1=O)(C(=O)NO)S(C)(=O)=O [Example 32, (2R)-4-[7-(1,3-dihydro-2-benzofuran-5-yl)-6-fluoro-4-oxo-3,4-dihydroquinazolin-3-yl]-N-hydroxy-2-methanesulfonyl-2-methylbutanamide] | 0.125 (≈ 0.263 µM) | 4 (≈ 8.41 µM) | 0.5 (≈ 1.05 µM) | – | – | –
8 | Cc1ccc(-c2ccc3c(=O)n(CC[C@](C)(C(=O)NO)S(C)(=O)=O)ccc3c2)cc1 [Example 54, (2R)—N-hydroxy-2-methanesulfonyl-2-methyl-4-[6-(4-methylphenyl)-1-oxo-1,2-dihydroisoquinolin-2-yl]butanamide] | < 0.03 | 1 (≈ 2.33 µM) | 0.5 (≈ 1.17 µM) | – | – | –
9 | Cc1ccc(-c2ccc3c(=O)n(CC[C@](C)(C(=O)NO)S(C)(=O)=O)nnc3c2)cc1 [Example 18, (2R)—N-hydroxy-2-methanesulfonyl-2-methyl-4-[7-(4-methylphenyl)-4-oxo-3,4-dihydro-1,2,3-benzotriazin-3-yl]butanamide] | 0.5 (≈ 1.16 µM) | 16 (≈ 37.2 µM) | 1 (≈ 2.32 µM) | – | – | –
10 | C[C@@](CCn1cnc2cc(-c3ccc(CNC4CC4)cc3F)c(F)cc2c1=O)(C(=O)NO)S(C)(=O)=O [Example 25, (2R)-4-(7-{4-[(cyclopropylamino)methyl]-2-fluorophenyl}-6-fluoro-4-oxo-3,4-dihydroquinazolin-3-yl)-N-hydroxy-2-methanesulfonyl-2-methylbutanamide] | 0.063 (≈ 0.121 µM) | 1 (≈ 1.92 µM) | 0.5 (≈ 0.961 µM) | – | – | –
11 | COCCNCc1ccc(-c2ccc3c(=O)n(CC[C@](C)(C(=O)NO)S(C)(=O)=O)ccc3c2)c(F)c1F [Example 71, (R)-4-(6-(2,3-difluoro-4-(((2-methoxyethyl)amino)methyl)phenyl)-1-oxoisoquinolin-2(1H)-yl)-N-hydroxy-2-methyl-2-(methylsulfonyl)butanamide] | 0.063 (≈ 0.117 µM) | 0.5 (≈ 0.93 µM) | 0.5 (≈ 0.93 µM) | – | – | –
12 | CCOc1ccc(-c2ccc3c(=O)n(CC[C@](C)(C(=O)NO)S(C)(=O)=O)cnc3c2)cc1 [Example 46, (2R)-4-[7-(4-ethoxyphenyl)-4-oxo-3,4-dihydroquinazolin-3-yl]-N-hydroxy-2-methanesulfonyl-2-methylbutanamide] | < 0.03 | 1 (≈ 2.18 µM) | 0.125 (≈ 0.272 µM) | – | – | –
13 | C[C@@](CCn1cnc2cc(-c3ccccc3)c(F)cc2c1=O)(C(=O)NO)S(C)(=O)=O [Example 31, (2R)-4-(6-fluoro-4-oxo-7-phenyl-3,4-dihydroquinazolin-3-yl)-N-hydroxy-2-methanesulfonyl-2-methylbutanamide] | 0.063 (≈ 0.145 µM) | 2 (≈ 4.61 µM) | 0.25 (≈ 0.577 µM) | – | – | –
14 | C[C@@](CCn1cnc2cc(-c3ccc(CCN4CCOCC4)cc3)c(F)cc2c1=O)(C(=O)NO)S(C)(=O)=O [Example 21, (2R)-4-(6-fluoro-7-{4-[2-(morpholin-4-yl)ethyl]phenyl}-4-oxo-3,4-dihydroquinazolin-3-yl)-N-hydroxy-2-methanesulfonyl-2-methylbutanamide] | 0.063 (≈ 0.115 µM) | 4 (≈ 7.32 µM) | 0.5 (≈ 0.915 µM) | – | – | –
15 | COc1ccc(-c2cc3ncn(CC[C@](C)(C(=O)NO)S(C)(=O)=O)c(=O)c3cc2F)cn1 [Example 30, (2R)-4-[6-fluoro-7-(6-methoxypyridin-3-yl)-4-oxo-3,4-dihydroquinazolin-3-yl]-N-hydroxy-2-methanesulfonyl-2-methylbutanamide] | 0.25 (≈ 0.538 µM) | 16 (≈ 34.4 µM) | 1 (≈ 2.15 µM) | – | – | –
16 | C[C@@](CCn1cnc2cc(-c3ccccc3F)ccc2c1=O)(C(=O)NO)S(C)(=O)=O [Example 8, (R)-4-(7-(2-fluorophenyl)-4-oxoquinazolin-3(4H)-yl)-N-hydroxy-2-methyl-2-(methylsulfonyl)butanamide] | ≤ 0.03 | 0.5 (≈ 1.15 µM) | 0.125 (≈ 0.288 µM) | – | – | –
17 | CN(C)c1ccc(-c2ccc3c(=O)n(CC[C@](C)(C(=O)NO)S(C)(=O)=O)cnc3c2)cc1 [Example 4, (R)-4-(7-(4-(dimethylamino)phenyl)-4-oxoquinazolin-3(4H)-yl)-N-hydroxy-2-methyl-2-(methylsulfonyl)butanamide Trifluoroacetic Acid Salt] | – | – | – | ≤ 0.03 | 8 | 0.25
18 | COc1ccc(-c2ccc3c(=O)n(CC[C@](C)(C(=O)NO)S(C)(=O)=O)ccc3c2)cn1.Cl [Example 60, (2R)—N-hydroxy-2-methanesulfonyl-4-[6-(6-methoxypyridin-3-yl)-1-oxo-1,2-dihydroisoquinolin-2-yl]-2-methylbutanamide] | < 0.03 | 0.5 | 0.5 | – | – | –
19 | CN(CCOc1ccc(-c2ccc3c(=O)n(CC[C@](C)(C(=O)NO)S(C)(=O)=O)ccc3c2)cn1)C1CC1.O=C(O)C(F)(F)F [Example 82, (2R)-4-[6-(6-{2-[cyclopropyl(methyl)amino]ethoxy}pyridin-3-yl)-1-oxo-1,2-dihydroisoquinolin-2-yl]-N-hydroxy-2-methanesulfonyl-2-methylbutanamide] | 0.25 | 4 | 0.25 | – | – | –
20 | C[C@@](CCn1cnc2cc(-c3ccc(CN4CC(F)(F)C4)cc3F)ccc2c1=O)(C(=O)NO)S(C)(=O)=O [Example 40, (2R)-4-(7-{4-[(3,3-difluoroazetidin-1-yl)methyl]-2-fluorophenyl}-4-oxo-3,4-dihydroquinazolin-3-yl)-N-hydroxy-2-methanesulfonyl-2-methylbutanamide] | 0.5 (≈ 0.928 µM) | 4 (≈ 7.43 µM) | 0.5 (≈ 0.928 µM) | – | – | –
21 | C[C@@](CCN1CCc2cc(-c3ccc(CN4CCOCC4)cc3)ccc2C1=O)(C(=O)NO)S(C)(=O)=O [Example 92, (2R)—N-hydroxy-2-methanesulfonyl-2-methyl-4-(6-{4-[(morpholin-4-yl)methyl]phenyl}-1-oxo-1,2,3,4-tetrahydroisoquinolin-2-yl)butanamide] | 0.5 (≈ 0.97 µM) | 4 (≈ 7.76 µM) | 0.5 (≈ 0.97 µM) | – | – | –
22 | COCCc1ccc(-c2ccc3c(=O)n(CC[C@](C)(C(=O)NO)S(C)(=O)=O)cnc3c2)c(F)c1 [Example 48, (2R)-4-{7-[2-fluoro-4-(2-methoxyethyl)phenyl]-4-oxo-3,4-dihydroquinazolin-3-yl}-N-hydroxy-2-methanesulfonyl-2-methylbutanamide] | < 0.03 | 1 (≈ 2.03 µM) | 0.125 (≈ 0.254 µM) | – | – | –
